The test system of one data set is VCAM-1. The experiment in a line: In Vitro VCAM-1 Assay (ELISA of VCAM-1 on TNF-α stimulated endothelial cells). It is filed as cell-based. The conditions noted are these: Endothelial cell; primary human aortic (HAEC) or pulmonary (HPAEC) endothelial cells, TNF-α (1 ng/ml), approximately 16 hours.
Another data set relates to Balb/C mice. The experiment in a line: Asthma Protocol (ovalbumin sensitized and challenged mice, bronchoaveolar lavage cell counts). It is filed as in vivo. The conditions noted are these: ovalbumin sensitized and aerosol challenged, lavage fluid cell counts. On the procedure:
Balb/C mice (6-8 weeks old) are sensitized to ovalbumin (ova) (8 ug ova absorbed in 3.3 mg Alum inject) on days 0 and 5. On day 12, the mice were aerosol challenged with 0.5% ovalbumin dissolved in sterile saline for 1 h in the AM, and then again in the PM (at least 4 h apart). On day 14, the mice were anesthetized with ketamine/xylazine/acepromazine cocktail, exsanguinated, and then euthanized. Following blood collection, bronchoaveolar lavage was performed on each animal. Total cell counts were conducted on the lavage fluid. The lavage fluid was processed and slides were made by spinning the samples with a cytospin centrifuge. Slides were airdried and stained using Diff-Quik® stain. Cell differentials of the lavage fluid were completed at the conclusion of the study. Statistical analysis involved ANOVA and Tukey-Kramer post hoc tests. Compounds were administered by subcutaneous injection twice daily from day 11-13. The formulations used contained various mixtures of the following excipients (pharmasolve, cremophor RH 40, tween 80, PEG 300). See Biological Table 3

The test system of another data set is Male Lewis rats. The experiment in a line: Rheumatoid Arthritis Protocol (adjuvant-induced paw swelling). It is filed as in vivo. The conditions noted are these: M. butyricum adjuvant. On the procedure:
Male Lewis rats (150-175 g) from Charles River Laboratories were anesthetized on day 0 with 3-5% isoflurane anesthesia while the tail base was shaved and adjuvant mixture was injected. 50 μL of adjuvant (10 mg/ml M. butyricum in mineral oil) was injected subcutaneously into two sites at the tail base. Paw swelling was monitored using a plethysmometer (UGO Basile), after shaving each leg to the level of the Achilles tendon to mark the level of immersion. A baseline paw measurement for both hindpaws was taken between […] a second measurement was taken on day 8. Onset of paw swelling occurred rapidly between days 8-11 and daily measurements were performed every weekday between day 8 and day 14. Compounds of the invention and vehicles were dosed therapeutically (d8-13) after swelling was confirmed. Solutions were injected subcutaneously or given orally by gavage 1-2 times per day. From day 0, rats were weighed on days 0, 8, 11, and 14 and overall health was monitored. Plasma drug levels, if desired, were measured in tail-vein derived blood samples taken on day 13. On day 14, blood samples were obtained by cardiac puncture, rats were euthanized with CO2, selected organs were removed and both hindpaws were amputated and placed in 10% buffered formalin for histopathological analysis. See Biological Table 2.

A value given as a limit tells only on which side of the number the result lay.

Consider `C=C(C(=O)c1ccc(C(=O)O)cc1)c1cc(-c2cccs2)ccc1OC` [Example 8, 4-[2-(2-Methoxy-5-thien-2-yl-phenyl)-acryloyl]-benzoic acid], for which the IC50 in the data set on VCAM-1 was below 1000 nM. Further, in the data set on Balb/C mice, the “% Inhibition 6 mg/kg sq, bid, d11-13” value worked out at 50%. Besides, in the data set with Male Lewis rats, the “% Inhibition 20 mg/kg sq, bid, d8-13” value is 44%.
On to `C=C(C(=O)c1c(OC)cccc1OC)c1ccc(OC(C)(C)C(=O)O)c(-c2cccs2)c1` [Example 37, 2-{4-[1-(2,6-Dimethoxy-benzoyl)-vinyl]-2-thien-2-yl-phenoxy}-2-methyl-propionic acid], for which the melting point was 56.5 °C (dec.). The compound also gave an IC50 in the data set on VCAM-1 below 6000 nM. Besides, the “% Inhibition 6 mg/kg sq, bid, d11-13” value with Balb/C mice came to 27%.
`C=C(C(=O)c1c(OC)ccc(-c2cccs2)c1OC)c1ccc(C(=O)O)cc1` [Example 30, 4-[1-(2,6-Dimethoxy-3-thien-2-yl-benzoyl)-vinyl]-benzoic acid] yielded a melting point of 193 to 195 °C. Further, the IC50 in the data set on VCAM-1 was below 1000 nM. Also, the “% Inhibition 6 mg/kg sq, bid, d11-13” value with Balb/C mice is given as 45%. The “% Inhibition 20 mg/kg sq, bid, d8-13” value in the data set on Male Lewis rats is on record as 77%.
Consider `C=C(C(=O)c1cc(-c2cc3ccccc3s2)c(OC)cc1OC)c1ccc(F)cc1` [Example 47, 1-(5-Benzo[b]thien-2-yl-2,4-dimethoxy-phenyl)-2-(4-fluoro-phenyl)-propenone], for which the melting point fell in the range of 150 to 152 °C. In the data set on VCAM-1, this compound returned an IC50 below 3000 nM.
With `C=C(C(=O)c1c(OC)cccc1OC)c1cc(-c2cccs2)ccc1OC(C)(C)C(=O)O` [Example 66, 2-{2-[1-(2,6-Dimethoxy-benzoyl)-vinyl]-4-thien-2-yl-phenoxy}-2-methyl-propionic acid], the melting point lay in the range of 72 to 84 °C. The IC50 in the data set on VCAM-1 was below 3000 nM.
As for `C=C(C(=O)c1c(OC)ccc(-c2cc3ccccc3s2)c1OC)c1cccc(OC(C)(C)C(=O)O)c1` [Example 45, 2-{3-[1-(3-Benzo[b]thien-2-yl-2,6-dimethoxy-benzoyl)-vinyl]-phenoxy}-2-methyl-propionic acid], the melting point lay within 135 to 137 °C. Besides, the IC50 in the data set with VCAM-1 was below 1000 nM.
On the same counts, the results for `C=C(C(=O)c1ccc(Nc2ncccn2)cc1)c1cc(-c2cccs2)ccc1OC` [Example 22, 2-(2-Methoxy-5-thien-2-yl-phenyl)-1-[4-(pyrimidin-2-ylamino)-phenyl]-propenone] are 154 to 155 °C and below 1000 nM.
On the same counts, the results for `C=C(C(=O)c1c(OC)ccc(-c2cccs2)c1OC)c1c(Cl)cccc1Cl` [Example 42, 2-(2,6-Dichloro-phenyl)-1-(2,6-dimethoxy-3-thien-2-yl-phenyl)-propenone] are 152 to 154 °C and below 1000 nM.
On the same counts, the results for `C=C(C(=O)c1c(C)cccc1C)c1ccc(C(=O)O)cc1-c1cccs1` [Example 33, 4-[1-(2,6-Dimethyl-benzoyl)-vinyl]-3-thien-2-yl-benzoic acid] are 186.5 to 188 °C and below 3000 nM.
Compound `C=C(C(=O)c1ccc(F)cc1)c1cc(-c2cccs2)ccc1OC` [Example 13, 1-(4-Fluoro-phenyl)-2-(2-methoxy-5-thien-2-yl-phenyl)-propenone] returned a melting point of 116 to 121 °C. The compound further had an IC50 with VCAM-1 below 3000 nM.
The like results for `C=C(C(=O)c1c(OC)cccc1OC)c1cc(-c2cccs2)ccc1OC` [Example 65, 1-(2,6-Dimethoxy-phenyl)-2-(2-methoxy-5-thien-2-yl-phenyl)-propenone] were, in that order, 162 to 163 °C and below 1000 nM.

(Values after patent publication US20060063828A1 (priority 2004, published 2006).)
